The results in this text go back to US20030032581A1, “Pharmaceuticals for treating obesity” (priority 1999, published 2003).

Each structure is given as a SMILES string. Marks after values point to notes of the source that are not given here.

For assay [1], the system named is fat-fed C57BL/6J mice. In words: Fat-fed C57BL/6J mice, obesity and metabolic parameters. In kind it is in vivo. The note with it: HF diet + 50 mg/kg/day. How it is done:
At the end of that time the animals had gained 16g, 22 g and 20.5 g, respectively (FIG. 3). […] Analysis of whole body triglyceride content and protein content were performed as described in Moller et al (Endocrinology 137:2397-2405, 1996). […] Thus, treatment with the PPARγ antagonist caused relative decreases in body adiposity and increases in lean body mass in fat fed mice. The plasma levels of glucose, triglycerides and free fatty acid levels were all increased in the HF group relative to the LF group (see Table below).

Assay [2] has as its system ob/ob mice. In words: ob/ob mice, plasma insulin. In kind it is in vivo. The settings on record: once daily dosing. The source says:
The PPAR-gamma antagonists/partial agonists are therefore effective in treating the obesity and other symptoms that generally occur in non-insulin dependent diabetes, such as elevated levels of glucose, triglycerides, and insulin in the plasma.

Assay [3] has as its system 3T3-L1 cells. In words: 3T3-L1 preadipocyte differentiation (aP2 expression). Format: cell-based. The note with it: Mus musculus, 3T3-L1, 120 h; 100 nM rosiglitazone, 5 days; read-out: IC50, block of rosiglitazone stimulated aP2 expression. The procedure: 3T3-L1 cells were obtained from American Type Culture Collection. Passage numbers 3 to 9 were used in all the studies. Monolayer fibroblasts were maintained in medium A (Dulbecco's modified Eagle's medium with 10% fetal calf serum, 100 units/ml penicillin, and 100 μg/ml streptomycin) at 37° C. in 5% CO2. […] Total RNA was prepared using Ultraspec™ RNA isolation system (Biotecx, Houston, Tex.). RNA concentration was quantitated by absorbance at 260 nm. Equal amount of RNA samples were denatured in formamide/formaldehyde and applied to Hybond™-N membranes (Amersham) using a slot blot apparatus (BioRad). Prehybridization was performed at 42° C. for 1-3 h in 40-50% formamide in a solution containing 25 mM sodium phosphate, pH 7.4, 0.9 M sodium chloride, 50 mM sodium citrate, 0.1% each of gelatin, ficoll, and polyvinylpyrollidone, 0.5% SDS, and 100 μg/ml denatured salmon sperm DNA. Hybridization was carried out at the same temperature for 20h in the same solution with ^32P-labeled aP2 cDNA probe (2×10^6 cpm/ml). After washing the membranes under appropriately stringent conditions, the hybridization signals were analyzed with a Phosphorlmager (Molecular Dynamics).

In general, IC50 refers to the concentration that inhibits the measured activity by half.

As to `O=C(O)c1c(Sc2ccccc2)c2cc(Cl)ccc2n1Cc1ccc(Cl)cc1` [Compound I, 1-(p-chlorobenzyl)-5-chloro-3-thiophenylindole-2-carboxylic acid], the body weight gained in assay [1] (72 days) is recorded as 20.5 g. Further, in assay [1] (mean +/- SE of 10 mice), the “Plasma free fatty acids” value is 0.536 +/− 0.02* mM, the Plasma glucose is listed as 145.6 +/− 4.1* mg/dl, the Plasma triglycerides is recorded as 71.4 +/− 4.1** mg/dl and the Serum insulin was determined as 1.35 ± 0.21 ng/mL. The “reduction in elevated levels of mean plasma insulin” value in assay [2] is recorded as 30-50%. Moreover, the half-inhibitory concentration (IC50) in assay [3] was about 300 nM.
